Experimental data as given in ChEMBL document CHEMBL2073780, “The antiprogestatin drug RU 486 potentiates doxorubicin cytotoxicity in multidrug resistant cells through inhibition of P-glycoprotein function” (FEBS Lett, 1994).

Experiments:
Type in all cases: functional, cell-based
[1] = molecular target: Multidrug resistance protein 1a (Rattus norvegicus) (UniProt Q6PSM0); experiment: TP_TRANSPORTER: increase in Doxorubicin intracellular accumulation (Doxorubicin: 10 ug/mL, Progesterone: 10 uM) in RHC1 cells
[2] = molecular target: ATP-dependent translocase ABCB1 (Homo sapiens, UniProt P08183); experiment: TP_TRANSPORTER: increase in Doxorubicin intracellular accumulation (Doxorubicin: 10 ug/mL, RU486: 10 uM) in K562 R7 cells; conditions: k562/r7, 10 µM
[3] = molecular target: Multidrug resistance protein 1a (Rattus norvegicus) (UniProt Q6PSM0); experiment: TP_TRANSPORTER: increase in Doxorubicin intracellular accumulation (Doxorubicin: 10 ug/mL, RU486: 10 uM) in RHC1 cells

Chain of Multidrug resistance protein 1a (Rattus norvegicus) (Q6PSM0 as listed by the source): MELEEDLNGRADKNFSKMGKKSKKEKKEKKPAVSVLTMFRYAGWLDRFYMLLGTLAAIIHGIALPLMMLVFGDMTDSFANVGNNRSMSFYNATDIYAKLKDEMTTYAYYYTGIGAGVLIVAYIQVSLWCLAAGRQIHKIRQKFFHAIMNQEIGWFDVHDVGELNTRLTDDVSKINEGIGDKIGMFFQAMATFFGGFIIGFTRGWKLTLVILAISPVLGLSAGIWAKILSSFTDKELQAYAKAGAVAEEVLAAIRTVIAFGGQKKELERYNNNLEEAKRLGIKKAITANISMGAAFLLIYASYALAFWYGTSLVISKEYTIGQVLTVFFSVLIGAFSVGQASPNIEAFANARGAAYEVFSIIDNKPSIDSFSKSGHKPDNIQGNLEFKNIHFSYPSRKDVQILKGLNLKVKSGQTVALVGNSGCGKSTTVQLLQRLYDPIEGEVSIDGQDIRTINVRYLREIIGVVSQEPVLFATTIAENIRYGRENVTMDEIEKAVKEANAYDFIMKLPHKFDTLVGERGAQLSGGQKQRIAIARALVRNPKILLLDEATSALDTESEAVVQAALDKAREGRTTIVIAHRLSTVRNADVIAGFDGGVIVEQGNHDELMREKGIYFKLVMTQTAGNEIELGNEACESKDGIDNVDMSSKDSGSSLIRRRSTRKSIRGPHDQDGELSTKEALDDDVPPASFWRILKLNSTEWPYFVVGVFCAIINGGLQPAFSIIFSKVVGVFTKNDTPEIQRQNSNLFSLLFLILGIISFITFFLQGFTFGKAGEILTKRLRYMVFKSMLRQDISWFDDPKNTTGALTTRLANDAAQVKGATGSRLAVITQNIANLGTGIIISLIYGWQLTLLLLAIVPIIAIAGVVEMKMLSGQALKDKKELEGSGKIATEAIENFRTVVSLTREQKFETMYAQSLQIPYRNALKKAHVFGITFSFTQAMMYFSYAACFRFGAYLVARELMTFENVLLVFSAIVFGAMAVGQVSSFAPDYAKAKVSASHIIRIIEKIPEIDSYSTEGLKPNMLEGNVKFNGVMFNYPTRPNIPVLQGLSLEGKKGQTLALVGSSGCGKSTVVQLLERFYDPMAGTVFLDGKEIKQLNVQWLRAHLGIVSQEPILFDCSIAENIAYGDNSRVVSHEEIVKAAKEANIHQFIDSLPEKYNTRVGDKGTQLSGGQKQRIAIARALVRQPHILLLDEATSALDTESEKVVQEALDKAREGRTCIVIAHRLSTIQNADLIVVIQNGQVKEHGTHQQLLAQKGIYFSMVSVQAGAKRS
Chain of ATP-dependent translocase ABCB1 (P08183 whole entry): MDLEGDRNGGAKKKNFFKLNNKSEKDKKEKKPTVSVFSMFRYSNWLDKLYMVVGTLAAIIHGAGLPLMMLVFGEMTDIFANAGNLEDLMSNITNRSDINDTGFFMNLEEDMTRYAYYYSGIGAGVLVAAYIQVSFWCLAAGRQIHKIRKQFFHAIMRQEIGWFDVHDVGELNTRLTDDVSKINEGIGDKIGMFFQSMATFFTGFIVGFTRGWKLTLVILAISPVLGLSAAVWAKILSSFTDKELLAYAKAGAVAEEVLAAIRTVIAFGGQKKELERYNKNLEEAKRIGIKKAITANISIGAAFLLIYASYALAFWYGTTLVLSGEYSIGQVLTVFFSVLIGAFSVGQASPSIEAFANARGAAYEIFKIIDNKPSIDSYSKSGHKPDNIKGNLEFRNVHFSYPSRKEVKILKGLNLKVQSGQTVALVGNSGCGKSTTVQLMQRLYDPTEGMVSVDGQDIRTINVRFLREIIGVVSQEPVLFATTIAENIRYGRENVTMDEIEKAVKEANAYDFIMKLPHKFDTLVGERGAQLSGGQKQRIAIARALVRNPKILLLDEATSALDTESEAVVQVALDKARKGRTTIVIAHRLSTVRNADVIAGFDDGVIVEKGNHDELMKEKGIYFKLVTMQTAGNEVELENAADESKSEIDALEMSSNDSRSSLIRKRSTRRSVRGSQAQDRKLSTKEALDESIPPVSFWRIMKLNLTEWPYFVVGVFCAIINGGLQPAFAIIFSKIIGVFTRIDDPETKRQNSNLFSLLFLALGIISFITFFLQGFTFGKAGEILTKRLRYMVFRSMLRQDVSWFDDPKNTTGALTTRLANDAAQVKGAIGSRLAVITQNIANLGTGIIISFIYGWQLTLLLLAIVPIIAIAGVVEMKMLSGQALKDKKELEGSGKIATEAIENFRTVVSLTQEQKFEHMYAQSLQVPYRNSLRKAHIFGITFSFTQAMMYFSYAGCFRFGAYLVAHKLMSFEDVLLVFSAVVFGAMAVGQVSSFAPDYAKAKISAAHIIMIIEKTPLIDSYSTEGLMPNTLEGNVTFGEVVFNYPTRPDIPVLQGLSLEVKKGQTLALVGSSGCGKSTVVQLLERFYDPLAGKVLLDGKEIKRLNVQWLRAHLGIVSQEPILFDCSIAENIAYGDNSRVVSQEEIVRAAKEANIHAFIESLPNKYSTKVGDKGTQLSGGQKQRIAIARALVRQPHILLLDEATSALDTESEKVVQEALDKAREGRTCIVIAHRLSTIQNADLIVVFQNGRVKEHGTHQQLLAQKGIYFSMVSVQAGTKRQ

CC(=O)[C@H]1CC[C@H]2[C@@H]3CCC4=CC(=O)CC[C@]4(C)[C@H]3CC[C@]12C
Activity [1]: inhibitor [+]

CC#C[C@]1(O)CC[C@H]2[C@@H]3CCC4=CC(=O)CCC4=C3[C@@H](c3ccc(N(C)C)cc3)C[C@@]21C [MIFEPRISTONE]
Activity [2]: inhibitor [+]
Activity [3]: inhibitor [+]
